Measurements reported in US8785598B2, “Coenzyme Q10 nanoparticles, preparation method thereof and composition containing said nanoparticles” (Korea Research Institute of Bioscience and Biotechnology, priority 2009, dated 2014).

Test: Confirmation of solubilization of coenzyme Q10 nanoparticle (visual, FIG. 9)
Type: physicochemical
Conditions: dispersed in water
Description: FIG. 9 illustrates images of (1) coenzyme Q10 powder, (2) an aqueous solution separated into a supernatant layer when coenzyme Q10 is dispersed in water and (3) an aqueous solution of a coenzyme Q10 nanoparticle of Example 7 of the present invention.
As a result, a semi-transparent yellow aqueous solution was formed.

## COC1=C(OC)C(=O)C(C/C=C(\C)CC/C=C(\C)CC/C=C(\C)CC/C=C(\C)CC/C=C(\C)CC/C=C(\C)CC/C=C(\C)CC/C=C(\C)CC/C=C(\C)CCC=C(C)C)=C(C)C1=O [coenzyme Q10]
  solubility in water / appearance of aqueous solution: not soluble in water
